This is an account of results in patent US7850984B2, “Protection of the female reproductive system from natural and artificial insults” (The General Hospital Corporation, priority 2000, dated 2010).

Test [1] has as its system oocytes. As to conditions: female mouse oocytes; Perez et al. (1997); cited from earlier work.
Test [2] concerns oocytes. Put plainly: In vitro oocyte culture with or without doxorubicin, apoptosis. Type of test: cell-based, mouse. As to conditions: 200 nM DXR, 24 hours, wild-type versus ASMase-deficient oocytes. As for the experimental part:
In addition to assessments of cellular morphology and caspase activation, some oocytes in each group are processed for DNA cleavage analysis as an endpoint for cell death using the Trevigen Comet Assay kit.
Female mice (43 days of age post-partum; Charles River Laboratories, Wilmington, Mass.) are superovulated with 10 IU of equine chorionic gonadotropin (eCG orPMSG) followed by 10 IU of human chorionic gonadotropin (hCG) 48 h later. Mature oocytes are collected from the oviducts 16 h after hCG injection. Cumulus enclosed oocytes are denuded by a 1-min incubation in 80 IU/ml of hyaluronidase, followed by three washes with culture medium. The medium used for all culture experiments is human tubal fluid (Irvine Scientific, Santa Ana, Calif.) supplemented with 0.5% bovine serum albumin (BSA).
Oocytes are cultured in 0.1 ml drops of culture medium (8-10 oocytes/drop) under paraffin oil and incubated with or without DXR (200 nM) and/or fumonisin-B1, sphingosine-1-phosphate or benzyloxycarbonyl-Val-Ala-Asp-fluoromethylketone (zVAD-FMK) for 24 h at 37° C. in a humidified atmosphere of 5% CO2-95% air. […] The percentage of oocytes that go through apoptosis out of the total number of oocytes cultured per drop in each experiment is then determined, and all experiments are independently repeated four to ten times with different mice.

For test [3], the system named is oocytes. Description: Microinjection of recombinant protein into single oocytes, apoptosis. In kind it is cell-based, mouse. As to conditions: wild-type oocytes; ASMase: six picoliters of a 1 mg/ml stock. How it is done: Human recombinant acid sphingomyelinase is synthesized and purified as described by He et al., Biochim. Biophys. Acta 1432, 251 (1999), incorporated herein by reference in its entirety. Six picoliters of vehicle or of a 1 mg/ml stock of the enzyme are microinjected into single oocytes using a Zeiss Axiovert 135 inverted microscope equipped with Narishige micromanipulators and a PLI-100 pico-injector. Oocytes that survive the microinjection procedure (>75%) are then cultured and assessed for the occurrence of apoptosis. Furthermore, microinjection of human recombinant Bax protein into single oocytes and assessments of apoptosis are made as described by Perez, et al. (1997) id. Microinjection of human recombinant Bax protein into oocytes duplicates the pro-apoptotic effects of both human recombinant ASMase microinjection and anti-cancer drug treatment (FIG. 3E).

Test [4] concerns germ cells of wild-type fetal ovaries (e13.5). Description: Fetal ovary culture without hormonal support, germ cell survival. In kind it is cell-based, mouse. As to conditions: wild-type fetal ovaries, 72 hours in vitro without hormonal support; FB1 5-500 μM; S1P increasing concentrations. As for the experimental part:
To determine the basis of the extensive oocyte hyperplasia in ASMase −/− neonates, fetal ovaries are harvested from wild-type and mutant mice at embryonic day 13.5 (e13.5) for in vitro culture as a model to recapitulate the events surrounding germline death that occurs as a normal component of female gametogenesis. A time-dependent activation of programmed cell death is observed in the germline of wild-type fetal ovaries cultured without hormonal support for up to 72 hours (FIG. 2A). […] These findings indicate that there exists an ovarian-intrinsic cell death defect in the ASMase-deficient mouse, and point to enhanced survival of the developing germline during oogenesis as the mechanism underlying the enlarged oocyte pool seen in mutant females at birth.
Equivalent levels of in vitro germ cell survival are obtained by either ASMase gene knockout (FIG. 2A) or by S1P treatment (FIG. 2B).

As to `COc1cccc2c1C(=O)c1c(O)c3c(c(O)c1C2=O)C[C@@](O)(C(=O)CO)C[C@@H]3O[C@H]1C[C@H](N)[C@H](O)[C@H](C)O1` [DXR, doxorubicin, reference compound], in test [1], the “oocyte cell death on in vitro exposure” value is “undergo a type of cell death, referred to as apoptosis”. Moreover, in test [2], the “apoptotic event in oocytes” value is recorded as “elicited in wild-type, but not ASMase-deficient, oocytes”.

Turning to “human recombinant Bax: human recombinant Bax protein microinjected into single oocytes”, the “apoptosis after microinjection versus vehicle-injected oocytes” value in test [3] was “significant (P<0.05) increase in apoptosis”.

With `CCCC[C@@H](C)[C@@H](OC(=O)C[C@@H](CC(=O)O)C(=O)O)[C@H](C[C@@H](C)C[C@H](O)CCCC[C@@H](O)C[C@H](O)[C@H](C)N)OC(=O)C[C@@H](CC(=O)O)C(=O)O` [FB1, fumonisin-B1, reference compound], the “germ cell survival / germ cell apoptosis in cultured fetal ovaries” value in test [4] was “does not alter survival rates in the female germline”.

B1: human recombinant ASMase: human recombinant acid sphingomyelinase enzyme microinjected into single oocytes (protein, UniProt P17405 47-631, looked up)
Sphingomyelin …: LALSDSRVLWAPAEAHPLSPQGHPARLHRIVPRLRDVFGWGNLTCPICKGLFTAINLGLKKEPNVARVGSVAIKLCNLLKIAPPAVCQSIVHLFEDDMVEVWRRSVLSPSEACGLLLGSTCGHWDIFSSWNISLPTVPKPPPKPPSPPAPGAPVSRILFLTDLHWDHDYLEGTDPDCADPLCCRRGSGLPPASRPGAGYWGEYSKCDLPLRTLESLLSGLGPAGPFDMVYWTGDIPAHDVWHQTRQDQLRALTTVTALVRKFLGPVPVYPAVGNHESTPVNSFPPPFIEGNHSSRWLYEAMAKAWEPWLPAEALRTLRIGGFYALSPYPGLRLISLNMNFCSRENFWLLINSTDPAGQLQWLVGELQAAEDRGDKVHIIGHIPPGHCLKSWSWNYYRIVARYENTLAAQFFGHTHVDEFEVFYDEETLSRPLAVAFLAPSATTYIGLNPGYRVYQIDGNYSGSSHVVLDHETYILNLTQANIPGAIPHWQLLYRARETYGLPNTLPTAWHNLVYRMRGDMQLFQTFWFLYHKGHPPSEPCGTPCRLATLCAQLSARADSPALCRHLMPDGSLPEAQSLWPRPLFC
Take B1: the “apoptosis after microinjection versus vehicle-injected oocytes” value in test [3] is recorded as “significant (P<0.05) increase in apoptosis”.
